Key:
Assay type in all cases: cell-based
[1] = system: HCT116 cell line (colorectal cancer); experiment: MTT cell viability assay, HCT116 (colorectal cancer), CRISPR knock-out; settings: E2F1 deleted by CRISPR, 8 days
Experimental: (§1) T-47D cells were maintained in growth medium (RPMI 1640 supplemented with 10% v/v heat inactivated fetal bovine serum and cultured at 37° C., 5% CO2, U2OS, MCF7 and HCT116 cells were maintained in growth medium (DMEM supplemented with 10% v/v heat inactivated fetal bovine serum) and cultured at 37° C., 5% CO2. Under assay conditions, cells were incubated in assay medium (RPMI 1640 or […] supplemented with 10% v/v heat inactivated fetal bovine serum and 100 units/mL penicillin-streptomycin) at 37° C. under 5% CO2. For the assessment of the effect of compounds on the proliferation of the cancer cell lines, exponentially growing cells were plated into 96-well plates overnight at a density of 1,000 cells/well in a final volume of 100 μl of cell growth medium. The next day the cells were dosed with compounds (T-992, GSK3326595, LLY-283, PF-06939999 and JNJ64619178) (quadruplicate ten-point 5-fold serial dilutions in DMSO), beginning at 100 μM. After addition of compounds, assay plates were incubated for 8 days at 37° C., 5% CO2, relative humidity 90%. NAD(P)H-dependent cellular oxidoreductase enzyme activity was measured by adding 100 μl thiazolyl blue tetrazolium bromide (MTT: Sigma-Aldrich) to the wells at a final concentration of 5 μM and incubated for 2 h at 37° C. Next, media was discarded from the wells and the formazan crystals were dissolved in 100 μl DMSO by shaking for 15 min. Absorbance was read on the Omega FLUOstar plate reader (BMG Labtech Ltd, Ortenberg, Germany) at a wavelength of 584 nm. Data were analysed and IC50 values determined using MARs data analysis software (BMG Labtech Ltd, Ortenberg, Germany). The concentration of compound inhibiting cell viability by 50% was determined using a 4-parametric fit of the normalized dose response curves.
(§2) pSpCas9(BB)-2A-Puro (Addgene plasmid ID: 48139) was used for the generation of E2F1 and pRb knock out cell lines using CRISPR-Cas9 technology. Cell lines were generated as detailed in (Ran et al., 2013).

[2] = system: U20S cell line (bone cancer); experiment: MTT cell viability assay, U20S (bone cancer), CRISPR knock-out; settings: pRb deleted by CRISPR, 8 days
Experimental: as §1, with “The next day the cells were dosed with compounds (T-992, GSK3326595, LLY-283, PF-06939999 and JNJ64619178) (quadruplicate ten-point 5-fold serial dilutions in DMSO), beginning at 100 μM. After addition of compounds, assay plates were incubated for 8 days at 37° C., 5% CO2, relative humidity 90%.” left out, “Next, media was discarded from the wells and the formazan crystals were dissolved in 100 μl DMSO by shaking for 15 min.” left out, “curves. […]” for “curves.”

[3] = system: T-47D cell line (breast cancer); experiment: MTT cell viability assay, T-47D (breast cancer), CRISPR knock-out; settings: 8 days; for sensitivity to PRMT5 inhibition (cell viability) of cells lacking E2F1: E2F1 deleted by CRISPR; for sensitivity to PRMT5 inhibition (cell viability) of cells lacking pRb: pRb deleted by CRISPR
Experimental: as §1, §2

Row | SMILES | sensitivity to PRMT5 inhibition (cell viability) of cells lacking E2F1 [1] | sensitivity to PRMT5 inhibition (cell viability) of cells lacking pRb [2] | sensitivity to PRMT5 inhibition (cell viability) of cells lacking E2F1 [3] | sensitivity to PRMT5 inhibition (cell viability) of cells lacking pRb [3]
1 | O[C@@H]1CO[C@H]2[C@@H]1OC[C@@H]2O [AT101] | less sensitive | more sensitive | less sensitive | more sensitive
2 | CC(=O)N1CCC(Nc2cc(C(=O)NC[C@H](O)CN3CCc4ccccc4C3)ncn2)CC1 [GSK3326595] | less sensitive |  | less sensitive | more sensitive
3 | Nc1nc2cc(CC[C@H]3C[C@@H](n4ccc5c(N)ncnc54)[C@H](O)[C@@H]3O)ccc2cc1Br [JNJ64619178] | less sensitive |  | less sensitive | 
4 | Nc1ncnc2c1ccn2[C@@H]1O[C@H]([C@H](O)c2ccccc2)[C@@H](O)[C@H]1O [LLY-283] | less sensitive |  | less sensitive | 
5 | Cc1ncnc2c1ccn2[C@@H]1C[C@H](Oc2cc(C(F)F)c(F)c3c2CNCC3)[C@@H](O)[C@H]1O [PF06939999] | less sensitive |  | less sensitive | more sensitive
